Consider 2 compounds from US8759073B2, “Method for effectively controlling harmful organisms in large-scale culture of microalgae” (ENN Science & Technology Development Co., Ltd., priority 2009, dated 2014).

One data set concerns Oxyrrhis. Briefly: Control of Oxyrrhis contamination in microalgae culture, microscope examination. In kind it is cell-based, Oxyrrhis sp. An excerpt:
If the contaminated alga liquid is identified as acid tolerant contamination, pH value is raised up with alkalis in the culture system of the microalgae and maintained for a period of time. The pH value cannot be higher than the maximal tolerable pH of the microalgae. […] In an embodiment, said alkali can be ammonia. In an embodiment, said alkali can be NaOH. In an embodiment, said alkali can be 1M NaOH. Depending on different pH requirements and different culture systems, alkalis with different concentrations can be used according to the agitation condition, as long as the transient pH is not too high to be harmful to microalgae, and dilution of the cell concentration in the culture system (caused by adding too much alkali solution) should also be avoided. […] In an embodiment, the pH of the culture system is adjusted to 11.5-12.0 with 1M NaOH or 1M ammonia. In an embodiment, the pH of the culture system is adjusted to 11.0-11.8 or 8.0-11.0 with 1M NaOH or 1M ammonia. In an embodiment, the pH of the culture system is adjusted to 8.0-11.0, 11.5-12.0 or 11.0-11.8 and maintained for 3 hours.
Microscope examination is always used as one of the bases for determining the growth status in the process of microalgae culture.
(§1) Chlorella sp. (purchased from FACHB collection, Wuhan Aquatic Research Institure, Chinses Academy of Sciences) was cultured in a 320 L bubbling reactor (manufactured by Longfang Jiangchuan plexiglass Co. Ltd., φ300 mm×2 m) out-of-doors under a sunlight film. The culture condition included: a temperature of about 25 °C, a humidity of 60%-80%, and an illumination of 8000-20000 lux. Modified SM (see Table 2) (pH 7.0-9.0 for the normal culture) was used. […] Then, CO2 was aerated to adjust pH to be 7.0-8.0.
(§2) Chlorella sp. (obtained from Jinan University) was cultured in a 320 L bubbling reactor (manufactured by Longfang Jiangchuan plexiglass Co. Ltd., φ300 mm×2 m) out-of-doors under a sunlight film (with a temperature of about 25 °C, a humidity of 60%-80%, and an illumination of 8000-20000 lux). Modified SM medium (see Table 2) was used. When Amoeba, Oxyrrhis and ciliate contaminations were observed is with an oil immersion lens (Nikon fluorescent invert microscope Ti series), pH was adjusted to 11.0-11.8 with 1M NaOH. […] Then, CO2 was aerated continuously to saturation (pH 5.6). […] Then air was sufficiently aerated.
(§3) Chlorococcum sp. (obtained from Qingdao Marine Institute) was cultured in a 60 L glass plate reactor (manufactured by Longfang Jiangchuan plexiglass Co. Ltd., OP=10 cm) under a sunlight film (with a temperature of about 25 °C, a humidity of 60%-80%, and an illumination of 8000-20000 lux) (pH 8.0-9.0 for the normal culture). Modified BG11 medium (see Table 3) was used. […] Then CO2 was aerated and pH was adjusted to 7.0-8.0.
(§4) Chlorococcum sp. (obtained from Qingdao Marine Institute) was cultured in a 60 L glass plate reactor (manufactured by Longfang Jiangchuan plexiglass Co. Ltd., OP=10 cm) under a sunlight film (with a temperature of about 25 °C, a humidity of 60%-80%, and an illumination of 8000-20000 lux) (pH 8.0-9.0 for the normal culture). Modified BG11 medium (see Table 3) was used. […] One hour later, CO2 was aerated to saturation (about pH 5.6) for 24 hour continuously. […] Then air was sufficiently aerated.

In a further data set the test system is Chlorococcum sp. The data set is described as follows: Growth of cultured algae after treatment, 60 L glass plate reactor. The conditions noted are these: for algae growth compared with adjusting pH with NaOH: pH adjusted with 1M ammonia. As for the experimental part:
(§5) pH of the normally cultured microalgae is adjusted into various ranges. The growth rate of the microalgae is measured and their appearance is observed under a microscope.
Chlorococcum sp. (obtained from Qingdao Marine Institute) was cultured (pH 8.0-9.0 for the normal culture) in a 60 L glass plate reactor (manufactured by Longfang Jiangchuan plexiglass Co. Ltd., OP=10 cm) under a sunlight film (with a temperature of about 25 °C, a humidity of 60%-80%, and an illumination of 8000-20000 lux). Modified BG11 medium (see Table 3) was used. […] CO2 was aerated continuously. […] Then air was sufficiently aerated, and pH was raised to 7.0-8.0 in 4 hours.
as §3, §4
Chlorococcum sp. (obtained from Qingdao Marine Institute) was cultured in a 60 L glass plate reactor (manufactured by Longfang Jiangchuan plexiglass Co. Ltd., OP=10 cm) under a sunlight film (with a temperature of about 25 °C, a humidity of 60%-80%, and an illumination of 8000-20000 lux) (pH 8.0-9.0 for the normal culture). Modified BG11 medium (see Table 3) was used. […] Then air was sufficiently aerated.
as §3
Chlorococcum sp. (obtained from Qingdao Marine Institute) was cultured in a 60 L glass plate reactor (manufactured by Longfang Jiangchuan plexiglass Co. Ltd., OP=10 cm) under a sunlight film (with a temperature of about 25 °C, a humidity of 60%-80%, and an illumination of 8000-20000 lux) (pH 8.0-9.0 for the normal culture). Modified BG11 medium (see Table 3) was used.

The subject of a further data set is Chlorella sp. Briefly: Growth of cultured algae after treatment, 320 L bubbling reactor. The conditions noted are these: for algae growth compared with adjusting pH with NaOH: pH adjusted with 1M ammonia. How it is done:
as §5, §1
Chlorella sp. (purchased from FACHB collection, Wuhan Aquatic Research Institure, Chinses Academy of Sciences) was cultured in a 320 L bubbling reactor (manufactured by Longfang Jiangchuan plexiglass Co. Ltd., φ300 mm×2 m) out-of-doors under a sunlight film. Modified SM medium (see Table 2) (pH 7.0-9.0 for the normal culture) was used. The culture condition included: a temperature of about 25 °C, a humidity of 60%-80%, and an illumination of 8000-20000 lux. […] Then air was sufficiently aerated, and pH was raised to 7.0-7.5 after 4 hours.
as §2
Chlorella sp. (purchased from FACHB collection, Wuhan Aquatic Research Institure, Chinses Academy of Sciences) was cultured in a 320 L bubbling reactor (manufactured by Longfang Jiangchuan plexiglass Co. Ltd., φ300 mm×2 m) out-of-doors under a sunlight film. Modified SM medium (see Table 2) (pH 7.0-9.0 for the normal culture) was used. The culture condition included: a temperature of about 25 °C, a humidity of 60%-80%, and an illumination of 8000-20000 lux. […] Then CO2 was aerated and pH was adjusted to 7.0-8.0.
Chlorella sp. (obtained from Jinan University) was cultured in a 320 L bubbling reactor (manufactured by Longfang Jiangchuan plexiglass Co. Ltd., φ300 mm×2 m) out-of-doors under a sunlight film (with a temperature of about 25 °C, a humidity of 60%-80%, and an illumination of 8000-20000 lux). Modified SM medium (see Table 2) was used. […] Then CO2 was aerated to saturation (pH 5.6) for 24 hours continuously. […] Then air was sufficiently aerated.

In a further data set the test system is Spirulina maxima. Briefly: Growth of cultured algae after treatment, 500 L raceway pond. The data set is classed as cell-based. The conditions noted are these: Example 15; pH adjusted with 1M ammonia. As for the experimental part:
Modified SM (see Table 2) was used. […] Then air was sufficiently aerated. Twenty-four hours later, the algae could resume to grow.
Modified SM (see Table 2) was used. […] One hour later, CO2 was aerated to saturation for 23 hour continuously (about pH 5.8). […] Then air was sufficiently aerated. Twenty-four hours later, the algae could resume to grow.

SMILES strings stand for the structures.

Consider `[Na+].[OH-]` [1M NaOH, NaOH], for which the “Oxyrrhis, result of microscope examination” value is recorded as “almost no Oxyrrhis” in the data set on Oxyrrhis (Example 2, Chlorella sp. culture, pH 11.0-11.8 with 1M NaOH, three hours); “essentially inactivated” in the data set on Oxyrrhis (Example 4, Chlorella sp. culture, mixed contamination, pH 11.0-11.8 with 1M NaOH, one hour); “almost no Oxyrrhis” in the data set with Oxyrrhis (Example 6, Chlorococcum sp. culture, pH 11.5-12.0 with 1M NaOH, three hours); “essentially inactivated” with Oxyrrhis (Example 7, Chlorococcum sp. culture, mixed contamination, pH 11.5-12.0 with 1M NaOH).
As for `N` [1M ammonia, ammonia], the “time until algae started to grow” value with Chlorococcum sp. (Example 13, pH 10.0 with 1M ammonia 3 h, then CO2 to pH 7.0-8.0) came to 18 h; in the data set with Chlorella sp. (Example 11, pH 8.0 with 1M ammonia 3 h, then CO2 to pH 7.0-8.0) it was 18 h. Also, the “algae growth compared with adjusting pH with NaOH” value with Chlorococcum sp. (Example 13), in the data set with Chlorococcum sp. (Example 14), with Chlorella sp. (Example 11), in the data set with Chlorella sp. (Example 12) and in the data set on Spirulina maxima was “clearly grew better” in each case. The “Oxyrrhis, result of microscope examination” value in the data set with Oxyrrhis (Example 11, Chlorella sp. culture, pH 8.0 with 1M ammonia, three hours) is given as “almost no Oxyrrhis was observed”; in the data set with Oxyrrhis (Example 12, Chlorella sp. culture, mixed contamination, pH 9.0 with 1M ammonia, one hour), “lost its activity essentially”; with Oxyrrhis (Example 13, Chlorococcum sp. culture, pH 10.0 with 1M ammonia, three hours), “almost no Oxyrrhis”; in the data set on Oxyrrhis (Example 14, Chlorococcum sp. culture, mixed contamination, pH 9.0 with 1M ammonia) it was “inactivated essentially”.
